# Assay results published in patent US20160106110A1, “COMPOSITIONS AND METHODS FOR ENHANCING GERMINATION” (CORNELL UNIVERSITY, priority 2013, published 2016).
# Assays:
# TrigoCor spores [1] = experiment: Terbium chloride (DPA release) spore germination assay at 37° C., 10 mM germinant (Example 1); assay type: cell-based, Bacillus subtilis var. amyloliquefaciens; conditions: for Percent germination of TrigoCor spores: 10 mM germinant, mean ± standard deviation; for percent germination of spores as compared to control (in words): summary of Table 1, 10 mM
# Description: Bacillus starter cultures were grown in nutrient broth plus yeast extract (Crane et al. 2013), then were transferred 1:1000 to a modified Schaeffer's sporulation medium (Nicholson and Setlow 1990) containing per liter 2.012 g KCl, 0.492 g MgSO4. 7 H20, no NaOH, and 0.0197 g MnCl2.4H20, and grown for 72 h. All cultures were grown in 50 mL aliquots in beveled flasks at 37° C. with 225 RPM shaking. Liquid cultures were spun down at 4° C. for 10 min at 10,000 RCF, washed 10 times in cold deionized water, and resuspended in 5 mL cold deionized water. To remove vegetative cells, cultures were treated with lysozyme (final concentration 50 μg/mL) for 10 min on ice, followed by six rounds of 15 sec sonication on ice, then were washed twice with cold deionized water. Spore preparations were stored in deionized water at 4° C., and prior to use were washed once with cold deionzied water. Unless otherwise noted, spores were resuspended in 25 mM HEPES (Sigma-Aldrich, St. Louis, Mo.) pH 7.41 to produce a final concentration of 10^8 CFUs/mL. Purified spore cultures contained over 98% phase-bright spores and minimal cell debris, as verified through phase contrast microscopy.
# Terbium chloride (1 mM) (Sigma-Aldrich, St. Louis, Mo.) and all germinant solutions were prepared in 25 mM HEPES pH 7.41 and added as noted in individual experiments. 90 μL TrigoCor spores were mixed with 10 μL of each germinant (100 mM, final concentration 10 mM) and incubated in a 96-well plate (Thermo Scientific, Waltham, Mass.) at 37° C. for 1, 10, 30, 60, or 120 min. Samples were prepared so that all incubations finished simultaneously and were analyzed together. For each germinant tested, two spore-germinant mixtures were loaded per incubation time. Germinants tested were D-glucose, D-fructose, KBr, KCl, L-alanine, L-asparagine, L-proline, L-valine, and the germinant combination AGFK (equimolar concentrations of L-asparagine, D-glucose, D-fructose, and KCl), or HEPES as a control. Following addition of 100 μL terbium chloride to all samples, fluorescence was measured as explained below.
# At each plate reader measurement time, two 90 μL samples of spores autoclaved for 60 min mixed with 10 μL HEPES, as well as a sample containing a mixture of all germinants and HEPES, were added as additional samples in the plate and mixed with 100 μL terbium chloride. A final sample of pure deionized water was included in the plate as well, and these samples were measured alongside all other samples in the plate. Fluorescence was measured at 545 nm emission and 273 nm excitation according to Yi and Setlow (2010) using a Synergy 4 plate reader (Biotek Instruments Inc., Winooski, Vt.). […] Percent spore germination for each sample at each time point was calculated by dividing its relative fluorescence units (RFUs) by the corresponding average RFUs of the autoclaved cells, which have released all their dipicolinic acid (DPA) due to lysis (Yang and Ponce 2009) and provided in Table 1. Spore germination results were confirmed using phase contrast microscopy (data not shown).
# TrigoCor spores [2] = experiment: Terbium chloride spore germination assay at 37° C., 10 or 100 mM germinant (Example 2); assay type: cell-based, Bacillus subtilis var. amyloliquefaciens; conditions: for Percent germination of TrigoCor spores: mean ± standard deviation; for percent germination of spores as compared to control (in words): summary of Table 2, 10 or 100 mM
# Description: The following protocol was performed as per Example 1, with the following modification:
# Terbium chloride (1 mM) (Sigma-Aldrich, St. Louis, Mo.) and all germinant solutions were prepared in 25 mM HEPES pH 7.41 and added as noted in individual experiments. 450 μL TrigoCor spores were mixed with 50 μL of each germinant (100 mM and 1 M, final concentrations 10 mM and 100 mM) and incubated at 37° C. Two samples were prepared for each germinant and germinants tested were D-glucose, L-alanine, AGFK, and an equimolar solution of glucose and alanine, or HEPES as a control. After 10, 30, 60, and 120 minutes of incubation, 100 μL was transferred from each tube to a 96-well plate. For an initial measurement of spore germination, two 100 μL samples of spores not mixed with germinants and kept at 4° C. were analyzed alongside the samples which had incubated for 10 minutes. Immediately following each sample time, 100 μL terbium chloride was added to all samples and fluorescence was measured as explained previously.
# Percent spore germination for each sample at each time point was calculated by dividing its relative fluorescence units (RFUs) by the corresponding average RFUs of the autoclaved cells, which have released all their dipicolinic acid (DPA) due to lysis (Yang and Ponce 2009) and provided in Table 2. Spore germination results were confirmed using phase contrast microscopy (data not shown).
# [3] = 10 mM germinant, incubation time 10 min
# [4] = 10 mM germinant, incubation time 30 min
# [5] = 10 mM germinant, incubation time 60 min
# [6] = 10 mM germinant, incubation time 120 min
# [7] = 100 mM germinant, incubation time 10 min
# [8] = 100 mM germinant, incubation time 30 min
# [9] = 100 mM germinant, incubation time 60 min
# [10] = 100 mM germinant, incubation time 120 min
Compound,Percent germination of TrigoCor spores (TrigoCor spores [1]; incubation time 1 min) [%],Percent germination of TrigoCor spores (TrigoCor spores [1]; incubation time 10 min) [%],Percent germination of TrigoCor spores (TrigoCor spores [1]; incubation time 30 min) [%],Percent germination of TrigoCor spores (TrigoCor spores [1]; incubation time 60 min) [%],Percent germination of TrigoCor spores (TrigoCor spores [1]; incubation time 120 min) [%],percent germination of spores as compared to control (in words) (TrigoCor spores [1]),Percent germination of TrigoCor spores (TrigoCor spores [2]; [3]) [%],Percent germination of TrigoCor spores (TrigoCor spores [2]; [4]) [%],Percent germination of TrigoCor spores (TrigoCor spores [2]; [5]) [%],Percent germination of TrigoCor spores (TrigoCor spores [2]; [6]) [%],Percent germination of TrigoCor spores (TrigoCor spores [2]; [7]) [%],Percent germination of TrigoCor spores (TrigoCor spores [2]; [8]) [%],Percent germination of TrigoCor spores (TrigoCor spores [2]; [9]) [%],Percent germination of TrigoCor spores (TrigoCor spores [2]; [10]) [%],percent germination of spores as compared to control (in words) (TrigoCor spores [2])
NC(=O)C[C@H](N)C(=O)O [L-asparagine],1 ± 0,1 ± 0,1 ± 0,1 ± 0,1 ± 0,,,,,,,,,,
[Cl-].[K+] [Potassium chloride],1 ± 0,1 ± 0,1 ± 0,1 ± 0,1 ± 0,,,,,,,,,,
O=C(CO)[C@@H](O)[C@H](O)[C@H](O)CO [D-fructose],1 ± 0,1 ± 0,1 ± 0,1 ± 1,1 ± 1,,,,,,,,,,
CC(C)[C@H](N)C(=O)O [L-valine],1 ± 0,1 ± 0,1 ± 0,1 ± 0,1 ± 0,,,,,,,,,,
O=C(O)[C@@H]1CCCN1 [L-proline],1 ± 0,1 ± 0,1 ± 0,1 ± 0,1 ± 0,,,,,,,,,,
C[C@H](N)C(=O)O [L-alanine],1 ± 0,4 ± 0,20 ± 1,23 ± 1,21 ± 0,increases,1 ± 0,13 ± 1,41 ± 1,43 ± 1,1 ± 0,47 ± 1,86 ± 3,90 ± 3,increases
O=C[C@H](O)[C@@H](O)[C@H](O)[C@H](O)CO [D-glucose],1 ± 0,1 ± 0,5 ± 0,10 ± 1,25 ± 1,increases,1 ± 0,5 ± 0,13 ± 1,28 ± 2,1 ± 0,7 ± 1,18 ± 2,34 ± 1,increases
[Br-].[K+] [Potassium bromide],1 ± 0,1 ± 0,1 ± 0,1 ± 0,1 ± 0,,,,,,,,,,
